Tests used:
SMMC-7721 = assay: Cytotoxicity against human SMMC7721 cells after 48 hrs by MTT assay; assay type: functional, cell-based; settings: SMMC-7721, 48 h
HL-60 = assay: Cytotoxicity against human HL60 cells after 48 hrs by MTT assay; assay type: functional, cell-based; settings: HL-60, 48 h
[1] = biological target: Serine/threonine-protein kinase mTOR (Homo sapiens) (UniProt P42345); assay: Inhibition of mTOR (unknown origin) assessed as ratio of cytoplasmic to nuclear level of eukaryotic initiation factor 4E
A549 = assay: Cytotoxicity against human A549 cells after 48 hrs by MTT assay; assay type: functional, cell-based; settings: A549, 48 h
SW480 = assay: Cytotoxicity against human SW480 cells after 48 hrs by MTT assay; assay type: functional, cell-based; settings: SW480, 48 h
MCF7 = assay: Cytotoxicity against human MCF7 cells after 48 hrs by MTT assay; assay type: functional, cell-based; settings: MCF7, 48 h

Row | SMILES | IC50 (SMMC-7721) | IC50 (HL-60) | Ratio [1] | IC50 (A549) | IC50 (SW480) | IC50 (MCF7)
1 | COc1ccc(C(=O)C[n+]2cn(Cc3c(-c4ccccc4)oc4ccccc34)c3ccccc32)cc1 | 16.6 µM | 0.61 µM | 1.32 | 9.12 µM | > 40 µM | 23.8 µM
2 | O=C(C[n+]1cnn(Cc2c(-c3ccccc3)oc3ccccc23)c1)c1ccc(F)cc1 | 9.21 µM | 9.67 µM |  | 15.1 µM | 16.8 µM | 16.4 µM
3 | O=C(C[n+]1cn(Cc2c(-c3ccccc3)oc3ccccc23)c2ccccc21)c1ccc2ccccc2c1 | 2.63 µM | 2.34 µM |  | 4.5 µM | 3.61 µM | 3.24 µM
4 | O=C(C[n+]1ccn(Cc2c(-c3ccccc3)oc3ccccc23)c1)c1ccc(F)cc1 | 13.4 µM | 2.98 µM |  | > 40 µM | 15.5 µM | 14.6 µM
5 | CCc1n(Cc2c(-c3ccccc3)oc3ccccc23)cc[n+]1CC(=O)c1ccc2ccccc2c1 | 2.3 µM | 0.61 µM | 1.55 | 5.35 µM | 3.14 µM | 3.03 µM
6 | COc1ccc(C(=O)C[n+]2ccn(Cc3c(-c4ccccc4)oc4ccccc34)c2)cc1 | 16.5 µM | 2.28 µM | 1.12 | 16.3 µM | 11.9 µM | 10.3 µM
7 | c1ccc(-c2oc3ccccc3c2Cn2cncn2)cc1 | > 40 µM | > 40 µM |  | > 40 µM | > 40 µM | > 40 µM
8 | O=C(C[n+]1cn(Cc2c(-c3ccccc3)oc3ccccc23)c2ccccc21)c1ccccc1 | 8.46 µM | 1.97 µM |  | 12.2 µM | 3.44 µM | 3.92 µM
9 | CCc1n(Cc2c(-c3ccccc3)oc3ccccc23)cc[n+]1CC(=O)c1ccc(OC)cc1 | 11.8 µM | 0.58 µM |  | 12.9 µM | 5.69 µM | 3.17 µM
10 | CCc1n(Cc2c(-c3ccccc3)oc3ccccc23)cc[n+]1CC(=O)c1ccccc1 | 5.01 µM | 2.09 µM |  | 12.5 µM | 11.9 µM | 7.53 µM
11 | O=C(C[n+]1cn(Cc2c(-c3ccccc3)oc3ccccc23)c2ccccc21)c1ccc(Br)cc1 | 2.94 µM | 2.11 µM |  | 5.25 µM | 4.37 µM | 4.08 µM
12 | O=C(c1ccccc1)C(c1ccccc1)[n+]1cnn(Cc2c(-c3ccccc3)oc3ccccc23)c1 (stereo not given) | 16.1 µM | 15.9 µM |  | 16.8 µM | 20.9 µM | 20.7 µM
13 | O=C(C[n+]1ccn(Cc2c(-c3ccccc3)oc3ccccc23)c1)c1ccc(O)cc1 | > 40 µM | > 40 µM |  | > 40 µM | > 40 µM | > 40 µM
14 | CCc1nccn1Cc1c(-c2ccccc2)oc2ccccc12 | > 40 µM | > 40 µM |  | > 40 µM | > 40 µM | > 40 µM
15 | O=C(C[n+]1cnn(Cc2c(-c3ccccc3)oc3ccccc23)c1)c1ccc2ccccc2c1 | 1.86 µM | 2.33 µM | 0.96 | 2.06 µM | 2.89 µM | 3.11 µM
16 | O=C(C[n+]1cnn(Cc2c(-c3ccccc3)oc3ccccc23)c1)c1ccc(Br)cc1 | 10.8 µM | 9.71 µM |  | 14.6 µM | 14.6 µM | 10.4 µM
17 | CCc1n(Cc2c(-c3ccccc3)oc3ccccc23)cc[n+]1CC(=O)c1ccc(F)cc1 | 8.13 µM | 0.99 µM |  | 14.6 µM | 11.3 µM | 5.03 µM
18 | Brc1ccccc1C[n+]1cn(Cc2c(-c3ccccc3)oc3ccccc23)c2ccccc21 | 2.1 µM | 0.64 µM | 1.52 | 3.34 µM | 5.56 µM | 4.78 µM

Reference: ChEMBL document CHEMBL2406955, “Synthesis and cytotoxic activities of novel hybrid 2-phenyl-3-alkylbenzofuran and imidazole/triazole compounds” (Bioorg Med Chem Lett, 2013)
